Measured values: PubChem BioAssay AID2060500 (Molecular Pharmacology Branch, DTP, NCI, 2025)

System: 596521-263-R-J1-PDC complex spheroids, viability % of control
Assay: Anticancer human tumor 596521-263-R-J1-PDC patient-derived soft tissue sarcoma cell line growth inhibition [GQUAD]
Settings: for IC50: curve of first compound; for viability, T/C: stronger effect = lower value
Procedure, shortened: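 Multi-cell-type spheroids of tumor cells with HUVEC and mesenchymal stem cells, treated with drug combinations. Concentrations descend in half-log steps from near clinical Cmax, or from 10 microM where Cmax is unknown; viability read-out.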

[1] = second compound 0.0316 µM, first compound 0.0316 µM
[2] = second compound 0.0316 µM, first compound 0.1 µM
[3] = second compound 0.0316 µM, first compound 0.316 µM
[4] = second compound 0.0316 µM, first compound 1 µM
[5] = second compound 0.0316 µM, first compound 3.16 µM
[6] = second compound 0.0316 µM, first compound 10 µM
[7] = second compound 0.1 µM, first compound 0.0316 µM
[8] = second compound 0.1 µM, first compound 0.1 µM
[9] = second compound 0.1 µM, first compound 0.316 µM
[10] = second compound 0.1 µM, first compound 1 µM
[11] = second compound 0.1 µM, first compound 3.16 µM
[12] = second compound 0.1 µM, first compound 10 µM
[13] = second compound 0.316 µM, first compound 0.0316 µM
[14] = second compound 0.316 µM, first compound 0.1 µM
[15] = second compound 0.316 µM, first compound 0.316 µM
[16] = second compound 0.316 µM, first compound 1 µM
[17] = second compound 0.316 µM, first compound 3.16 µM
[18] = second compound 0.316 µM, first compound 10 µM
[19] = second compound 1 µM, first compound 0.0316 µM
[20] = second compound 1 µM, first compound 0.1 µM
[21] = second compound 1 µM, first compound 0.316 µM
[22] = second compound 1 µM, first compound 1 µM
[23] = second compound 1 µM, first compound 3.16 µM
[24] = second compound 1 µM, first compound 10 µM
[25] = second compound 3.16 µM, first compound 0.0316 µM
[26] = second compound 3.16 µM, first compound 0.1 µM
[27] = second compound 3.16 µM, first compound 0.316 µM
[28] = second compound 3.16 µM, first compound 1 µM
[29] = second compound 3.16 µM, first compound 3.16 µM
[30] = second compound 3.16 µM, first compound 10 µM
[31] = second compound 10 µM, first compound 0.0316 µM
[32] = second compound 10 µM, first compound 0.1 µM
[33] = second compound 10 µM, first compound 0.316 µM
[34] = second compound 10 µM, first compound 1 µM
[35] = second compound 10 µM, first compound 3.16 µM
[36] = second compound 10 µM, first compound 10 µM
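Note: spheroids exposed to drugs for 7 days before viability reading.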
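Throughout, for viability, T/C: 100% = DMSO vehicle control viability.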

Question: What does the source list for `CC(=O)O[C@H]1C(=O)[C@@]2(C)[C@H]([C@H](OC(=O)c3ccccc3)[C@]3(O)C[C@H](OC(=O)[C@H](O)[C@@H](NC(=O)c4ccccc4)c4ccccc4)C(C)=C1C3(C)C)[C@]1(OC(C)=O)CO[C@@H]1C[C@@H]2O` + CN(C)c1ccc(Nc2c3ccc(NC(=O)CCN4CCCC4)cc3nc3cc(NC(=O)CCN4CCCC4)ccc23)cc1?
Answer: IC50 (second compound 0.0316 µM): < 0.0316 µM; IC50 (second compound 0.1 µM): < 0.0316 µM; IC50 (second compound 0.316 µM): < 0.0316 µM; IC50 (second compound 1 µM): < 0.0316 µM; IC50 (second compound 3.16 µM): < 0.0316 µM; IC50 (second compound 10 µM): < 0.0316 µM; viability, T/C [1]: 40.7%; viability, T/C [2]: 27.7%; viability, T/C [3]: 25.7%; viability, T/C [4]: 22.9%; viability, T/C [5]: 26.8%; viability, T/C [6]: 31.9%; viability, T/C [7]: 37.5%; viability, T/C [8]: 25.6%; viability, T/C [9]: 24.3%; viability, T/C [10]: 28%; viability, T/C [11]: 23.1%; viability, T/C [12]: 26.6%; viability, T/C [13]: 37.2%; viability, T/C [14]: 27.4%; viability, T/C [15]: 25.2%; viability, T/C [16]: 29.2%; viability, T/C [17]: 29.3%; viability, T/C [18]: 25.3%; viability, T/C [19]: 38.3%; viability, T/C [20]: 29%; viability, T/C [21]: 26.5%; viability, T/C [22]: 25.2%; viability, T/C [23]: 28.3%; viability, T/C [24]: 27.5%; viability, T/C [25]: 35.6%; viability, T/C [26]: 32.1%; viability, T/C [27]: 26.9%; viability, T/C [28]: 27.1%; viability, T/C [29]: 27.3%; viability, T/C [30]: 28.2%; viability, T/C [31]: 34.3%; viability, T/C [32]: 21.7%; viability, T/C [33]: 21.4%; viability, T/C [34]: 21.5%; viability, T/C [35]: 21.6%; viability, T/C [36]: 24.9%

Question: With `Nc1ccn(C2OC(CO)C(O)C2(F)F)c(=O)n1` (stereo unspecified) + CN(C)c1ccc(Nc2c3ccc(NC(=O)CCN4CCCC4)cc3nc3cc(NC(=O)CCN4CCCC4)ccc23)cc1 as the compound, how does the IC50 (second compound 0.0316 µM) read?
Answer: < 0.0316 µM

Question: And the IC50 (second compound 0.1 µM)?
Answer: < 0.0316 µM

Question: What about the IC50 (second compound 0.316 µM) of the same compound?
Answer: 0.121 µM

Question: And the IC50 (second compound 1 µM)?
Answer: < 0.0316 µM

Question: What about the IC50 (second compound 3.16 µM) of the same compound?
Answer: < 0.0316 µM

Question: What about the IC50 (second compound 10 µM) of the same compound?
Answer: < 0.0316 µM

Question: What about the viability, T/C [1] of the same compound?
Answer: 48.3%

Question: And the viability, T/C [2]?
Answer: 39.2%

Question: What about the viability, T/C [3] of the same compound?
Answer: 40.5%

Question: What about the viability, T/C [4] of the same compound?
Answer: 37.3%

Question: What about the viability, T/C [5] of the same compound?
Answer: 44.5%

Question: And the viability, T/C [6]?
Answer: 40.2%

Question: And the viability, T/C [7]?
Answer: 53.9%

Question: And the viability, T/C [8]?
Answer: 42.2%

Question: And the viability, T/C [9]?
Answer: 40%

Question: And the viability, T/C [10]?
Answer: 39.1%

Question: What about the viability, T/C [11] of the same compound?
Answer: 44.1%

Question: What about the viability, T/C [12] of the same compound?
Answer: 38.1%

Question: And the viability, T/C [13]?
Answer: 53.6%

Question: What about the viability, T/C [14] of the same compound?
Answer: 46.6%

Question: And the viability, T/C [15]?
Answer: 48.7%

Question: What about the viability, T/C [16] of the same compound?
Answer: 49.8%

Question: And the viability, T/C [17]?
Answer: 40.1%

Question: And the viability, T/C [18]?
Answer: 39.4%

Question: And the viability, T/C [19]?
Answer: 46.7%

Question: What about the viability, T/C [20] of the same compound?
Answer: 41.5%

Question: What about the viability, T/C [21] of the same compound?
Answer: 39.3%

Question: And the viability, T/C [22]?
Answer: 42.2%

Question: What about the viability, T/C [23] of the same compound?
Answer: 39%

Question: What about the viability, T/C [24] of the same compound?
Answer: 40.5%

Question: What about the viability, T/C [25] of the same compound?
Answer: 44.7%

Question: And the viability, T/C [26]?
Answer: 44.2%

Question: What about the viability, T/C [27] of the same compound?
Answer: 40.6%

Question: And the viability, T/C [28]?
Answer: 42.5%

Question: What about the viability, T/C [29] of the same compound?
Answer: 40.5%

Question: And the viability, T/C [30]?
Answer: 35.6%

Question: What about the viability, T/C [31] of the same compound?
Answer: 42.4%

Question: And the viability, T/C [32]?
Answer: 37.4%

Question: What about the viability, T/C [33] of the same compound?
Answer: 33.4%

Question: What about the viability, T/C [34] of the same compound?
Answer: 35.2%

Question: What about the viability, T/C [35] of the same compound?
Answer: 38%

Question: What about the viability, T/C [36] of the same compound?
Answer: 38.2%

Question: `O=c1[nH]cc(F)c(=O)[nH]1` + CN(C)c1ccc(Nc2c3ccc(NC(=O)CCN4CCCC4)cc3nc3cc(NC(=O)CCN4CCCC4)ccc23)cc1 was tested. Which IC50 (second compound 0.0316 µM) did it give?
Answer: > 10 µM

Question: And the IC50 (second compound 0.1 µM)?
Answer: > 10 µM

Question: What about the IC50 (second compound 0.316 µM) of the same compound?
Answer: > 10 µM

Question: What about the IC50 (second compound 1 µM) of the same compound?
Answer: > 10 µM

Question: And the IC50 (second compound 3.16 µM)?
Answer: > 10 µM

Question: What about the IC50 (second compound 10 µM) of the same compound?
Answer: > 10 µM

Question: What about the viability, T/C [1] of the same compound?
Answer: 111%

Question: And the viability, T/C [2]?
Answer: 118%

Question: What about the viability, T/C [3] of the same compound?
Answer: 94.2%

Question: What about the viability, T/C [4] of the same compound?
Answer: 94.4%

Question: What about the viability, T/C [5] of the same compound?
Answer: 109%

Question: And the viability, T/C [6]?
Answer: 91.1%

Question: And the viability, T/C [7]?
Answer: 102%

Question: And the viability, T/C [8]?
Answer: 117%

Question: And the viability, T/C [9]?
Answer: 105%

Question: And the viability, T/C [10]?
Answer: 97%

Question: What about the viability, T/C [11] of the same compound?
Answer: 110%

Question: What about the viability, T/C [12] of the same compound?
Answer: 89.7%

Question: What about the viability, T/C [13] of the same compound?
Answer: 107%

Question: What about the viability, T/C [14] of the same compound?
Answer: 92.1%

Question: And the viability, T/C [15]?
Answer: 95.4%

Question: What about the viability, T/C [16] of the same compound?
Answer: 93.9%

Question: And the viability, T/C [17]?
Answer: 95.4%

Question: What about the viability, T/C [18] of the same compound?
Answer: 96.4%

Question: And the viability, T/C [19]?
Answer: 98.9%

Question: What about the viability, T/C [20] of the same compound?
Answer: 101%

Question: And the viability, T/C [21]?
Answer: 102%

Question: And the viability, T/C [22]?
Answer: 111%

Question: What about the viability, T/C [23] of the same compound?
Answer: 105%

Question: What about the viability, T/C [24] of the same compound?
Answer: 98.2%

Question: And the viability, T/C [25]?
Answer: 89.4%

Question: What about the viability, T/C [26] of the same compound?
Answer: 89.6%

Question: What about the viability, T/C [27] of the same compound?
Answer: 103%

Question: And the viability, T/C [28]?
Answer: 85.6%

Question: What about the viability, T/C [29] of the same compound?
Answer: 110%

Question: And the viability, T/C [30]?
Answer: 80%

Question: What about the viability, T/C [31] of the same compound?
Answer: 66.5%

Question: What about the viability, T/C [32] of the same compound?
Answer: 67.4%

Question: What about the viability, T/C [33] of the same compound?
Answer: 63.1%

Question: And the viability, T/C [34]?
Answer: 75.2%

Question: And the viability, T/C [35]?
Answer: 68.4%

Question: And the viability, T/C [36]?
Answer: 64.1%
